According to patent US9242941B2, “Alkyl, fluoroalkyl-1,4-benzodiazepinone compounds” (BRISTOL-MYERS SQUIBB COMPANY, priority 2012, dated 2016):

Columns and labels:
[1] = tested on: human Notch 1; assay: Notch-CBF1 Transactivation Assay (Notch 1); assay type: cell-based; conditions: read-out: Notch 1 IC50; Notch-CBF1 transactivation luciferase assay in transfected HeLa cells; some values are an average of N experiments
Source text: (§1) Notch-CBF1 Transactivation Assay
(§2) The Notch-CBF1 (C-promoter binding factor I) cell based transactivation assay is based on the ability of the released Notch intracellular domain fragments (NICDs) to function as transcription factors in conjunction with CBF1 and other nuclear factors. Luciferase assays were used to measure the antagonism of Notch-CBF1 transcriptional activity. HeLa cervical cancer cells are transiently co-transfected with pCDNA3.1/Hygro plasmids containing truncated Notch 1, Notch 2, Notch 3, or Notch 4 receptors and a PGL3 luciferase reporter vector containing 4 copies of CBF1 binding site. The cells were then tested for Notch-CBF1 activity in the absence or presence of test compounds. HeLa cells, maintained in DMEM (high glucose with HEPES), 1× glutamine/penicillin/streptomycin and 10% Fetal Bovine serum, were transiently transfected in a T175 Flask (4.5×10^6 cells/flask) using the Monster Transfection Kit (Minis #MIR2906) according to manufacturers specifications. Table 13 denotes respective DNA quantity for the transfections.
(§3) Assay media (5 μL) containing test compounds in final concentrations ranging from 5 μM to 8.4×10^−5 μM (3 fold serial dilutions) were added to the cells and the cell plates were then incubated for 18 hours at 37° C. and 5% CO2. Control wells contained DMSO vehicle (total counts) or 0.5 μM of an in-house small molecule inhibitor (background counts). Duplicates were used for each sample. Luciferase activity was measured after a 20-minute incubation with 50 μl STEADY-GLO® luciferase reagents according to manufacturer's specifications (Promega, Cat. #E2550) and analyzed by Envision plate reader (PerkinElmer, Boston, Mass.).
(§4) The antagonist effect of compounds was expressed as 100×[1−(average sample−average background)/(average total−average background)] where sample is the luciferase activity in the presence of test compound, background is equal to the luciferase activity in the presence of the small molecule inhibitor control and the total is signal induced in DMSO wells.

[2] = tested on: human Notch 3; assay: Notch-CBF1 Transactivation Assay (Notch 3); assay type: cell-based; conditions: read-out: Notch 3 IC50; Notch-CBF1 transactivation luciferase assay in transfected HeLa cells; some values are an average of N experiments
Source text: as §1, §2, §3, §4

[3] = human metabolic stability half-life assay; conditions: microsomes, human liver microsomes
Experimental: Metabolic Stability Half-Life Panel
Incubation with Liver Microsomes

[4] = pH 7.4, CYP-mediated metabolic stability half life, NADPH-dependent
[5] = pH 7.4, HLM (t1/2, min), CYP-mediated (NADPH-dependent), 0.5 μM compound, 45 min time course, some values are an average of N experiments

| Compound | IC50 [1] | IC50 [2] | half-life at 0.5 µM [3, 4] | half-life at 0.5 µM [3, 5] |
| --- | --- | --- | --- | --- |
| Cc1cccc2c1NC(=O)[C@@H](NC(=O)[C@H](CCC(F)(F)F)[C@H](CC1CC1)C(N)=O)N=C2c1cccc(C(F)(F)F)c1 [Example 9, (2R,3S)-3-(Cyclopropylmethyl)-N-((3S)-9-methyl-2-oxo-5-(3-(trifluoromethyl)phenyl)-2,3-dihydro-1H-1,4-benzodiazepin-3-yl)-2-(3,3,3-trifluoropropyl)succinamide] | 1.8 nM | 4.9 nM | ≥ 30 min | 90 min |
| NC(=O)[C@@H](CC1CC1)[C@@H](CCC(F)(F)F)C(=O)N[C@H]1N=C(c2cccc(Cl)c2)c2cccc(F)c2NC1=O [Example 24, (2R,3S)—N-((3S)-5-(3-Chlorophenyl)-9-fluoro-2-oxo-2,3-dihydro-1H-1,4-benzodiazepin-3-yl)-3-(cyclopropylmethyl)-2-(3,3,3-trifluoropropyl)succinamide] | 3.7 nM | 2.7 nM | ≥ 30 min | 76 min |
| CCC[C@H](C(N)=O)[C@@H](CCC(F)(F)F)C(=O)N[C@H]1N=C(c2ccccc2)c2cccc(C)c2NC1=O [Example 15, (2R,3S)—N-((3S)-9-Methyl-2-oxo-5-phenyl-2,3-dihydro-1H-1,4-benzodiazepin-3-yl)-3-propyl-2-(3,3,3-trifluoropropyl)succinamide] | 12.7 nM | 9.3 nM | ≥ 30 min | 40 min |
| CCC[C@H](C(N)=O)[C@@H](CCC(F)(F)F)C(=O)N[C@H]1N=C(c2ccccc2)c2cccc(C#N)c2NC1=O [Example 32, (2R,3S)—N-((3S)-9-Cyano-2-oxo-5-phenyl-2,3-dihydro-1H-1,4-benzodiazepin-3-yl)-3-propyl-2-(3,3,3-trifluoropropyl)succinamide] | 8.3 nM | 19.7 nM | ≥ 30 min | 55 min |
| Cc1ccc2c(c1F)NC(=O)[C@@H](NC(=O)[C@H](CCC(F)(F)F)[C@H](CC1CC1)C(N)=O)N=C2c1ccccc1 [Example 18, (2R,3S)-3-(Cyclopropylmethyl)-N-((3S)-9-fluoro-8-methyl-2-oxo-5-phenyl-2,3-dihydro-1H-1,4-benzodiazepin-3-yl)-2-(3,3,3-trifluoropropyl)succinamide] | 6.5 nM | 6.9 nM | ≥ 30 min | > 120 min |
| NC(=O)[C@@H](CC1CC1)[C@@H](CCC(F)(F)F)C(=O)N[C@H]1N=C(c2cccc(Cl)c2)c2cccc(Cl)c2NC1=O [Example 26, (2R,3S)—N-((3S)-9-Chloro-5-(3-chlorophenyl)-2-oxo-2,3-dihydro-1H-benzo[e][1,4]diazepin-3-yl)-3-(cyclopropylmethyl)-2-(3,3,3-trifluoropropyl)succinamide] | 1.9 nM | 2.1 nM | ≥ 30 min | 96 min |
| COc1cccc2c1NC(=O)[C@@H](NC(=O)[C@H](CCC(F)(F)F)[C@H](CC1(C)CC1)C(N)=O)N=C2c1ccccc1 [Example 33, (2R,3S)—N-((3S)-9-Methoxy-2-oxo-5-phenyl-2,3-dihydro-1H-1,4-benzodiazepin-3-yl)-3-((1-methylcyclopropyl)methyl)-2-(3,3,3-trifluoropropyl)succinamide] | 3.8 nM | 5.9 nM | ≥ 30 min | 47 min |
| COc1cccc2c1NC(=O)[C@@H](NC(=O)[C@H](CCC(F)(F)F)[C@H](CC1CC1)C(N)=O)N=C2c1cccc(C)c1 [Example 31, (2R,3S)-3-(Cyclopropylmethyl)-N-((3S)-9-methoxy-5-(3-methylphenyl)-2-oxo-2,3-dihydro-1H-1,4-benzodiazepin-3-yl)-2-(3,3,3-trifluoropropyl)succinamide] | 5.6 nM | 7.9 nM | ≥ 30 min | 52 min |
| NC(=O)[C@@H](CC1CC1)[C@@H](CCC(F)(F)F)C(=O)N[C@H]1N=C(c2ccccc2)c2cccc(C3CC3)c2NC1=O [Example 14, (2R,3S)-3-(Cyclopropylmethyl)-N-(9-cyclopropyl-2-oxo-5-phenyl-2,3-dihydro-1H-1,4-benzodiazepin-3-yl)-2-(3,3,3-trifluoropropyl)succinamide] | 4.3 nM | 5.1 nM | ≥ 30 min | 41 min |
| CCC[C@H](C(N)=O)[C@@H](CCC(F)(F)F)C(=O)N[C@H]1N=C(c2ccc(Cl)cc2)c2cccc(OC)c2NC1=O [Example 25, (2R,3S)—N-((3S)-5-(4-Chlorophenyl)-9-methoxy-2-oxo-2,3-dihydro-1H-1,4-benzodiazepin-3-yl)-3-propyl-2-(3,3,3-trifluoropropyl)succinamide] | 6.8 nM | 5.6 nM | ≥ 30 min | 31 min |
| COc1cccc2c1NC(=O)[C@@H](NC(=O)[C@H](CCC(F)(F)F)[C@H](CC1CC1)C(N)=O)N=C2c1cccc(F)c1 [Example 4, (2R,3S)-3-(Cyclopropylmethyl)-N-((3S)-5-(3-fluorophenyl)-9-methoxy-2-oxo-2,3-dihydro-1H-1,4-benzodiazepin-3-yl)-2-(3,3,3-trifluoropropyl)succinamide] | 4.2 nM | 8.1 nM | ≥ 30 min | 83 min |
| CCC[C@H](C(N)=O)[C@@H](CCC(F)(F)F)C(=O)N[C@H]1N=C(c2ccccc2)c2ccc(Br)c(OC)c2NC1=O [Example 39, (2R,3S)—N-((3S)-8-Bromo-9-methoxy-2-oxo-5-phenyl-2,3-dihydro-1H-1,4-benzodiazepin-3-yl)-3-propyl-2-(3,3,3-trifluoropropyl)succinamide] | 13.4 nM | 12 nM | ≥ 30 min | 38 min |
| NC(=O)[C@@H](CC1CC1)[C@@H](CCC(F)(F)F)C(=O)N[C@H]1N=C(c2cccc(F)c2)c2cccc(F)c2NC1=O [Example 23, (2R,3S)-3-(Cyclopropylmethyl)-N-((3S)-9-fluoro-5-(3-fluorophenyl)-2-oxo-2,3-dihydro-1H-1,4-benzodiazepin-3-yl)-2-(3,3,3-trifluoropropyl)succinamide] | 4.8 nM | 8 nM | ≥ 30 min | 69 min |
| Cc1cccc(C2=N[C@H](NC(=O)[C@H](CCC(F)(F)F)[C@H](CC3CC3)C(N)=O)C(=O)Nc3c(O)cccc32)c1 [Example 8, (2R,3S)-3-(Cyclopropylmethyl)-N-((3S)-9-hydroxy-5-(3-methylphenyl)-2-oxo-2,3-dihydro-1H-1,4-benzodiazepin-3-yl)-2-(3,3,3-trifluoropropyl)succinamide] | 5.6 nM | 15.7 nM | ≥ 30 min | 37 min |
| COc1cccc2c1NC(=O)[C@@H](NC(=O)[C@H](CCC(F)(F)F)[C@H](CC1CC1)C(N)=O)N=C2c1ccc(Cl)cc1 [Example 21, (2R,3S)—N-((3S)-5-(4-Chlorophenyl)-9-methoxy-2-oxo-2,3-dihydro-1H-1,4-benzodiazepin-3-yl)-3-(cyclopropylmethyl)-2-(3,3,3-trifluoropropyl)succinamide] | 2.4 nM | 2.4 nM | ≥ 30 min | 62 min |
| NC(=O)[C@@H](CC1CC1)[C@@H](CCC(F)(F)F)C(=O)N[C@H]1N=C(c2cccc(F)c2)c2cccc(OC3CC3)c2NC1=O [Example 5, (2R,3S)-3-(Cyclopropylmethyl)-N-((3S)-9-(cyclopropyloxy)-5-(3-fluorophenyl)-2-oxo-2,3-dihydro-1H-1,4-benzodiazepin-3-yl)-2-(3,3,3-trifluoropropyl)succinamide] | 5.1 nM | 8.9 nM | ≥ 30 min | 74 min |
| Cc1cccc(C2=N[C@H](NC(=O)[C@H](CCC(F)(F)F)[C@H](CC3CC3)C(N)=O)C(=O)Nc3c(Cl)cccc32)c1 [Example 30, (2R,3S)—N-((3S)-9-Chloro-5-(3-methylphenyl)-2-oxo-2,3-dihydro-1H-1,4-benzodiazepin-3-yl)-3-(cyclopropylmethyl)-2-(3,3,3-trifluoropropyl)succinamide] | 2.5 nM | 5.2 nM | ≥ 30 min | 74 min |
| Cc1cc(F)cc(C2=N[C@H](NC(=O)[C@H](CCC(F)(F)F)[C@H](CC3CC3)C(N)=O)C(=O)Nc3c(Cl)cccc32)c1 [Example 3, (2R,3S)—N-((3S)-9-Chloro-5-(3-fluoro-5-methylphenyl)-2-oxo-2,3-dihydro-1H-benzo[e][1,4]diazepin-3-yl)-3-(cyclopropylmethyl)-2-(3,3,3-trifluoropropyl)succinamide] | 5.1 nM | 7.5 nM | ≥ 30 min | 77 min |
